Assay results published in patent publication US20140205681A1, “HYDROGEN-BOND SURROGATE PEPTIDES AND PEPTIDOMIMETICS FOR p53 REACTIVATION” (New York University, priority 2013, published 2014).
Ends that are not written are not given here. * marks the point of attachment. A∗ = N-allylalanine, C=CCN[C@@H](C)C(=O)*; code X = not defined here

What was measured:
[1] = system: UMSCC47 cells; assay: ALDH (ALDEFLUOR) and CD44 (FACS) cancer initiating cell markers; type: cell-based, human
Procedure: Cells were assessed for ALDH activity using the ALDEFLUOR kit according to the manufacturer's protocol (Stem Cell Technologies, British Columbia, Canada). Cells were suspended in ALDEFLUOR assay buffer containing ALDH substrate (bidipy-aminoacetaldehyde, 1 μM per 1×10^6 cells) and incubated for 40 minutes at 37° C. For each experiment, a sample of cells was incubated with 50 mM of diethylaminobenzaldehyde (DEAB), a specific ALDH inhibitor, to serve as the negative control. For CD44 expression, cells were harvested and resuspened in incubation buffer with PE-CD44 antibody (Abcam) or mouse PE-IgG (Abcam) for 50 minutes on ice. Suspensions were centrifuged at 300×g for 5 minutes at 4° C. and resuspend in 0.5 mL of 1% paraformaldehyde solution for analysis. Fluorescence activated cell sorting (FACS) analyses were performed using BD FACS Calibur at The Ohio State University Comprehensive Cancer Center Analytical Cytometry Core.

[2] = system: UPCI:SCC090 cells; assay: Cell proliferation (MTT); type: cell-based, human; conditions: UPCI:SCC090/CH1 cells
Procedure: (§1) Cell proliferation was assessed using the MTT reagent (Roche Molecular Biochemicals, Nutley, N.J.) to detect metabolic active cells. Absorbance was measured at 570 nm in the Spectra Max 190 ELISA reader (Molecular Devices, Sunnyvale, Calif.) after overnight incubation. For clonogenic survival, 200 cells per well were plated in complete growth media and allowed to grow until visible colonies were formed (14 days). Cell colonies were fixed with cold methanol, stained with 0.25% crystal violet in 25% methanol, washed, and air dried. For apoptosis, cells were harvested, washed with cold PBS, and co-stained with Annexin V and propidium iodide according to the manufacturer's protocol (ApoAlert Annexin V-FITC Apoptosis Kit; Clontech). Apoptotic cells were analyzed using BD FACS Calibur (BD Biosciences Corporation, Franklin Lakes, N.J.) at The Ohio State University Comprehensive Cancer Center Analytical Cytometry Core.

[3] = system: UMSCC74A cells; assay: Cell proliferation (MTT); type: cell-based, human; conditions: for cell proliferation, single-agent: HPV-negative UMSCC74A cells, 10 μM; for effect on efficacy of cis-platinum on proliferation: UMSCC74A cells, 10 μM with cis-platinum 10 μM
Procedure: as §1

[4] = system: UMSCC47 cells; assay: Cell proliferation (MTT); type: cell-based, human; conditions: for effect on anti-proliferative efficacy of cis-platinum / cell proliferation, single-agent: UMSCC47 cells; for effect on anti-proliferative efficacy of cis-platinum: 10 μM with cis-platinum 10 μM; for cell proliferation, single-agent: 10 μM, 24-72 hours
Procedure: as §1

[5] = target: T1, HPV16 E6-p300 (Homo sapiens, UniProt Q09472); assay: Immunoprecipitation of HPV16 E6-p300 association; type: cell-based
T1 construct: Cell lysates were extracted, immunoprecipitated with anti-p300 antibody, and immunoblotted with anti-E6 antibody; endogenous in cells; host or cells: UMSCC47 (HPV16-positive HNSCC)
T1 sequence (Q09472 whole entry): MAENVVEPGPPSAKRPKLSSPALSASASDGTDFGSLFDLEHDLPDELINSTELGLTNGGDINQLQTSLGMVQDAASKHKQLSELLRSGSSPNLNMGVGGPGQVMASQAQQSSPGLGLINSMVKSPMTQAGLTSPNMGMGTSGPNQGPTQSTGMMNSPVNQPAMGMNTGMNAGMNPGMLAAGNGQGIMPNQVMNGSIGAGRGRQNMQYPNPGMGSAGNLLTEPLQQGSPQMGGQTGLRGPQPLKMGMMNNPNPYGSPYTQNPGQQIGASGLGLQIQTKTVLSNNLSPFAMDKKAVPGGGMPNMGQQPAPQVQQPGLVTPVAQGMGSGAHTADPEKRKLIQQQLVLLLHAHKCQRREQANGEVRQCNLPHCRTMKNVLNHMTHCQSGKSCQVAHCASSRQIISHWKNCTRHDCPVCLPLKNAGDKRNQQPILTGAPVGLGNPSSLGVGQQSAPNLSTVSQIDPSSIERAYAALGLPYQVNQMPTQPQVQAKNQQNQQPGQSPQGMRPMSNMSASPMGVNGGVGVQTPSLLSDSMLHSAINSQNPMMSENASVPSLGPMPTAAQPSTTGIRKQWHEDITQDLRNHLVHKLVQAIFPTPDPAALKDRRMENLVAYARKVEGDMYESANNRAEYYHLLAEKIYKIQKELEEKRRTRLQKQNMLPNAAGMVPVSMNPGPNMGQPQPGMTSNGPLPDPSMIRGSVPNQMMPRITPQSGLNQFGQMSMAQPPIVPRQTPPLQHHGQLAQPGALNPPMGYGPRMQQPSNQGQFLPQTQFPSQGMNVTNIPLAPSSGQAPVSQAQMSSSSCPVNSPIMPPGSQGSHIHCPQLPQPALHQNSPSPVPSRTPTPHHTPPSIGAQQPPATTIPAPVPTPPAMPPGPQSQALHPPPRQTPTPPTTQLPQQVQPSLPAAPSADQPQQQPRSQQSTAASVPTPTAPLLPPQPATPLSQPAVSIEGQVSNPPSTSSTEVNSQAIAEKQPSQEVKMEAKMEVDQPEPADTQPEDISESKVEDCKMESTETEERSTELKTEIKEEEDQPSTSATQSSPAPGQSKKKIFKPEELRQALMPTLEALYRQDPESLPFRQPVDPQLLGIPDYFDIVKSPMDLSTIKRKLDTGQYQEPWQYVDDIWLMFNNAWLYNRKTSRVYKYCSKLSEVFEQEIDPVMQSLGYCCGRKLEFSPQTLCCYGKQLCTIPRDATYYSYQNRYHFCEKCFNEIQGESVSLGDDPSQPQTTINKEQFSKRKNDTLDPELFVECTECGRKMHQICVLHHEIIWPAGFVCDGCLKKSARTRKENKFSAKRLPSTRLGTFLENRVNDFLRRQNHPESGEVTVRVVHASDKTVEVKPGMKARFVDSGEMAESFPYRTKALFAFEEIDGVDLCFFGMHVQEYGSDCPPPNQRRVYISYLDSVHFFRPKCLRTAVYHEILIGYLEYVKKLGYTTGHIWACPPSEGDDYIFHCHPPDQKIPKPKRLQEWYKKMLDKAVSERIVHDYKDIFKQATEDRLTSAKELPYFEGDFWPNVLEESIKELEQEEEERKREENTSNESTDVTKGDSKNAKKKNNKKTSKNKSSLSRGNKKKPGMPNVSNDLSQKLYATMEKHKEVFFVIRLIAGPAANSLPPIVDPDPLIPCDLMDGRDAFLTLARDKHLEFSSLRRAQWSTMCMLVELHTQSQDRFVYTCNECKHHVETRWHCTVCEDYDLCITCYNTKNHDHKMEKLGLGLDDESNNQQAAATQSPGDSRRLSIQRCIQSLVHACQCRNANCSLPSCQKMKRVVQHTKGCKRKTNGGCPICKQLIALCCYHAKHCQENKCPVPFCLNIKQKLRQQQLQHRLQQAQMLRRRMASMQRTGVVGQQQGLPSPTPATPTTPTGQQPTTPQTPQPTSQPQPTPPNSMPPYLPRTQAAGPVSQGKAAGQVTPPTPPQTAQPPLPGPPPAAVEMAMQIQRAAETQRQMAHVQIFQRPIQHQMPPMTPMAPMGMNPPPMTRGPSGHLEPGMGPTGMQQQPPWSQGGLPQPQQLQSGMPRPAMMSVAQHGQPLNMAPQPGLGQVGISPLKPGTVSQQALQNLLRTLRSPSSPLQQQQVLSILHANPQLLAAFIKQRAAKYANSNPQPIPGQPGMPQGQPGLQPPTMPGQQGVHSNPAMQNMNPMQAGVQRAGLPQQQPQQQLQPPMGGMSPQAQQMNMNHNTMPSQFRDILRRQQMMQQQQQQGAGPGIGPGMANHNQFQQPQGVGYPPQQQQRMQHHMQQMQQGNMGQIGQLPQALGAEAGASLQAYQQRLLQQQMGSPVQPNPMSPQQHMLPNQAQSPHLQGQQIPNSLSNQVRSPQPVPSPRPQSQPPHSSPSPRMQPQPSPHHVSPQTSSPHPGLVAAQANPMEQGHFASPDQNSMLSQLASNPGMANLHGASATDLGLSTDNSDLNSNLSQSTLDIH
Procedure: Cells were lysed with NP buffer [50 mM Tris (pH 8.0), 150 mM NaCl, 0.5% deoxycholate, 0.1% SDS, and 1.0% NP-40] containing 1× Protease Inhibitor Cocktail (Roche, Switzerland) at 4° C. with gentle rocking for 15 min. The supernatant was pre-cleared to block nonspecific binding with 50 μL protein A/G Agarose beads (Pierce Biotechnology) that had been pre-washed with NP buffer before use. Equal amounts of anti-E6 antibody (Abcam), anti-p300 antibody (Millipore), or IgG antibody (Cell Signaling) were added to the respective samples. After 4 hours incubation at 4° C., 50 μL pre-washed protein A/G-agarose beads were added to each tube and immunoprecipitation was performed by rocking overnight at 4° C. The immunoprecipitated complexes were washed with NP buffer and then eluted using 2×SDS sample buffer. Eluted sample and 10% of input were resolved by SDS-PAGE for Western blot analysis with anti-E6, anti-p300, or anti-V5 antibodies.

[6] = system: UPCI:SCC090 cells; assay: Clonogenic survival (crystal violet); type: cell-based, human; conditions: UPCI:SCC090/CH1 cells
Procedure: as §1

[7] = system: UMSCC74A cells; assay: Clonogenic survival (crystal violet); type: cell-based, human; conditions: overexpression of CH1, UMSCC74A cells
Procedure: as §1

[8] = system: UMSCC47 cells; assay: Clonogenic survival (crystal violet); type: cell-based, human
Procedure: as §1

[9] = system: p53; assay: Western blot of total and acetylated[K382] p53 levels; type: cell-based, human; conditions: for acetylated p53 levels / p53 accumulation / p53 levels: 10 μM; for p53 levels: UMSCC74A
Procedure: Whole cell lysates were mixed with Laemmli loading buffer, boiled, separated by SDS-PAGE, and transferred to a nitrocellulose membrane. Subsequently, immunoblot analyses were performed using antibodies specific to V5 (Invitrogen), p53 (sc-126, Santa Cruz Biotechnology, Santa Cruz, Calif.), or acetylated[[…]]-p53 (2525, Cell Signaling Technology). The signal was developed using the SuperSignal Western Blotting Kit (Pierce, Rockford, Ill.).

[10] = target: T2, MDM2-p300 (Homo sapiens, UniProt Q09472); assay: Immunoprecipitation of MDM2-p300 association; type: cell-based; conditions: introduction of CH1, UMSCC74A cells
T2 construct: Cell lysates were extracted, immunoprecipitated with anti-p300 antibody, and immunoblotted with anti-MDM2; endogenous in cells; host or cells: UMSCC74A (HPV-negative, p53 wildtype HNSCC)
T2 sequence (Q09472 whole entry): as above

[11] = system: UMSCC47 cells; assay: Tumorsphere formation; type: cell-based, human
Procedure: Cells were harvested and seeded in a serum-free defined medium consisting of KSF medium supplemented with epidermal growth factor, basic fibroblast growth factor, insulin, and hydrocortisone in low-attachment plates (Corning Incorporated, Corning, N.Y.) for tumorspheres. Tumorsphere formation efficiency was calculated as the number of tumorspheres ([…] in diameter) formed in 7 days divided by the original number of cells seeded. Tumorsphere diameter was measured using NIS-Elements software.

[12] = system: p53; assay: p53 transcriptional activity (Cignal p53 Firefly/Renilla luciferase reporter); type: cell-based, human; conditions: for p53 activity, increase: HPV-positive UMSCC47 cells, vs vehicle; for p53 activity, increase / p53 activity: 10 μM; for p53 activity: UMSCC74A (HPV-negative, p53 wildtype)
Procedure: Cells were transfected with 100 ng of Cignal p53 reporter (SABiosciences, Valencia, Calif.) using Lipofectamine 2000. Cignal p53 reporter contains tandem repeats of the p53 consensus transcriptional response element. After 48 hours, cells were washed with cold PBS, lysed in passive lysis buffer (Promega), and measured for Firefly/Renilla dual luciferase activities in a luminometer using the Dual-Light System (Applied Biosystems, Foster City, Calif.). […] to control for transfection efficiency. A modification to the protocol was used for compound treatment. UMSCC47 cells were transfected with 100 ng of Cignal p53 reporter. After 24 hours, cells were treated with vehicle, CH1iB (10 μM), cis-platinum (10 μM), or combination of CH1iB (10 μM) and cis-platinum (10 μM) and measured for Firefly/Renilla dual luciferase activities 24 hours post-treatment.

[13] = system: UPCI:SCC090 cells; assay: Apoptosis (Annexin V FACS); type: cell-based, human; conditions: CH1 overexpression
Procedure: as §1

[14] = system: UMSCC74A cells; assay: Apoptosis (Annexin V FACS); type: cell-based, human; conditions: overexpression of CH1, UMSCC74A cells
Procedure: as §1

[15] = system: UMSCC47 cells; assay: Apoptosis (Annexin V FACS); type: cell-based, human
Procedure: as §1

[16] = system: p300, p53, p21, miR-34a, miR-200c; assay: Quantitative real-time PCR of p300, p53, p21, miR-34a and miR-200c expression; type: cell-based, human; conditions: for expression of p300, p53, and p53-regulated genes: UMSCC74A
Procedure: Cells were extracted for total RNA using the TRIzol® reagent (Invitrogen) or TaqMan PreAmp Cells-to-CT kit (Applied Biosystems). Expression of p300, p53, p21, miR-34a and miR-200c were determined using the Applied Biosystems 7900HT Fast Real-Time PCR System with validated TaqMan gene expression assays (Applied Biosystems). p53, p300, and p21 expression were normalized to GADPH and miR-34a and miR-200c expression were normalized to RNU44 using the ΔΔCt method.

[17] = system: UMSCC47 cells; assay: Tumor incidence and growth in athymic nude mice; type: in vivo
Procedure: After 3 weeks, tumors were measured once a week using a digital caliper and tumor volumes were calculated using the formula d1×d2×d3×0.5236, where “d” represents the three orthogonal diameters. Tumor growth and incidence were monitored for 49 days following tumor cell implantation.

[18] = system: IMR90 (human normal fibroblasts); assay: Cell proliferation (MTT); type: cell-based; conditions: for effect on efficacy of cis-platinum on proliferation: IMR90 fibroblasts, 10 μM with cis-platinum 10 μM; for cell proliferation, single-agent: human normal IMR90 fibroblasts, 10 μM
Procedure: as §1

[19] = target: CH1 domain of p300 (Homo sapiens, UniProt Q09472); conditions: competes with endogenous HIF-1α for p300; Henchey et al. 2010; cited from earlier work
Chain of CH1 domain of p300 (Q09472 whole entry, the tested form may be a part): as the sequence (Q09472 whole entry) above

[20] = CH1 overexpression, UMSCC47 cells
[21] = CH1 overexpressing UMSCC47 and UPCI:SCC090 cells
[22] = overexpression of CH1, UMSCC47 cells
[23] = UMSCC47 cells, 10 μM with cis-platinum 10 μM, 24 hours

CH1: CH1 domain of p300 ectopically expressed from pcDNA3.1/CH1 in stably transfected HNSCC cells
ALDH^high population, reduced by [1, 20]: 46%
CD44^high population, reduced by [1, 20]: 31%
CD44 levels (FACS), reduced by ([1]; UMSCC47/CH1 vs UMSCC47/empty cells): 33%
cell proliferation, reduced by [2]: 11%
cell proliferation, inhibited by ([3]; overexpression of CH1, UMSCC74A cells): 48%
cell proliferation, reduced by ([4]; UMSCC47/CH1 cells): 20%
association between E6 and p300 ([5]; exogenous CH1, UMSCC47 and UPCI:SCC090 cells): reduce the association between E6 and p300
clonogenic survival, reduced by [6]: 58%
clonogenic survival, inhibited by [7]: 70%
clonogenic survival, reduced by ([8]; UMSCC47/CH1 cells): 55%
acetylated p53 [9, 21]: increase
total p53 [9, 21]: accumulation
total and acetylated p53 ([9]; ectopic expression of CH1, HPV-negative UMSCC74A cells): increased
interaction between p300 and MDM2 [10]: disrupted
tumorsphere diameter, reduced by [11, 22]: 25%
tumorsphere formation efficiency, inhibited by [11, 22]: 42%
p53 transcription activity, elevated by ([12]; UMSCC47/CH1 cells vs empty vector): 85%
p53 transcription activity, elevated by ([12]; UMSCC74A/CH1 vs UMSCC74A/empty cells): 68%
p53 transcription activity, elevated by ([12]; UPCI:SCC090/CH1 cells vs empty vector): 50%
apoptosis, increased by [13]: 27%
apoptosis, increased by [14]: 95%
apoptosis, increased by ([15]; CH1 overexpression): 60%
miR-34a expression, increased by ([16]; UMSCC47/CH1 cells): 323%
miR-200c expression, increased by ([16]; UMSCC47/CH1 cells): 80%
p21 expression, increased by ([16]; UMSCC47/CH1 cells): 114%
miR-34a expression, increased by ([16]; UPCI:SCC090/CH1 cells): 134%
miR-200c expression, increased by ([16]; UPCI:SCC090/CH1 cells): 49%
p21 expression, increased by ([16]; UPCI:SCC090/CH1 cells): 39%
p53 and p300 expression ([16]; overexpression of CH1, UMSCC47 and UPCI:SCC090): no effect
tumor incidence ([17]; 3×10^4 UMSCC47/CH1 cells implanted (UMSCC47/empty 50%)): 0%
mean tumor volume ([17]; 3×10^5 UMSCC47/CH1 cells implanted (UMSCC47/empty 142 mm^3)): 67 mm^3
tumor incidence vs UMSCC47/empty ([17]; 3×10^5 cells implanted in flanks, 49 days): the same

XELA*RAADQ-NH2 [CH1iB-mut]
effect on anti-proliferative efficacy of cis-platinum [4]: no effect
cell proliferation, single-agent [4]: no effect
p53 activity, increase ([12]; 24 hours): 14%

XELA*RALDQ-NH2 [CH1iB]
effect on efficacy of cis-platinum on proliferation [18]: did not augment
cell proliferation, single-agent [18]: no effect
cell proliferation, single-agent [3]: no effect
effect on efficacy of cis-platinum on proliferation [3]: did not augment
effect on anti-proliferative efficacy of cis-platinum [4]: potentiated
cell proliferation, single-agent [4]: inhibited the proliferation
association between E6 and p300 ([5]; UMSCC47 cells, 10 μM, 24 hours): reduced
clonogenic survival, reduction/inhibition ([8]; UMSCC47 cells, 10 μM each agent, 14 days, vs vehicle): 35%
effect of cis-platinum on p53 accumulation and acetylation [9, 23]: potentiated
acetylated p53 levels ([9]; UMSCC47 cells, 24 hours): enhanced
p53 accumulation ([9]; UMSCC47 cells, 24 hours): enhanced
p53 levels ([9]; 24 hours): did not modulate
tumorsphere formation, reduced by ([11]; UMSCC47 cells, 10 μM, 7 days, vs vehicle): 20%
p53 activity, increase ([12]; 24 hours): 71%
effect of cis-platinum on p53 activity [12, 23]: potentiated
p53 activity ([12]; 24 hours): did not modulate
apoptosis, enhanced by ([15]; 10 μM, 24 hours, vs vehicle): 353%
p21, miR-34a, and miR-200c expression ([16]; UMSCC47 cells, 10 μM, 24 hours): modest but significant increase
expression of p300, p53, and p53-regulated genes ([16]; 10 μM, 24 hours): unchanged

XTAA*DCEYNAR ({code X-Thr-Ala-A∗}-DCEYNAR; staple (positions not given here); reading uncertain; also: HBS: 4-pentenoic acid, N-allylalanine, printed as XTAA*DCEYNAR) [CH1iA, hydrogen bond surrogate stabilized α-helical mimic of HIF-1α targeting site A of p300 CH1; X = 4-pentenoic acid, A* = N-allylalanine, reference compound]
effect on efficacy of cis-platinum on proliferation [18]: did not augment
cell proliferation, single-agent [18]: no effect
cell proliferation, single-agent [3]: no effect
effect on efficacy of cis-platinum on proliferation [3]: did not augment
cell proliferation, single-agent [4]: inactive
acetylated p53 levels ([9]; UMSCC47 cells, 24 hours): no effect
p53 accumulation ([9]; UMSCC47 cells, 24 hours): no effect
p53 levels ([9]; 24 hours): did not modulate
HIF-1α-mediated transcription of vascular endothelial growth factor [19]: reduction
p53 activity, increase ([12]; 24 hours): no effect
p53 activity ([12]; 24 hours): did not modulate
expression of p300, p53, and p53-regulated genes ([16]; 10 μM, 24 hours): unchanged
